Experiments:
autophagy markers = assay: Autophagy markers in protein extracts of hippocampus and prefrontal cortex after acute antidepressant injection; format: in vivo, mice; details: FKBP51 WT versus FKBP51 KO mice; 10 mg kg-1
Description: Western blot analysis was performed on eluates from ColPs or with protein extracts from cells or tissue. Protein extracts were obtained by lysing cells or tissue (prelysed as described in the paragraph before) in 62.5 mM Tris, 2% SDS and 10% sucrose, supplemented with protease (Sigma, P2714) and phosphatase (Roche, 04906837001) inhibitor cocktail. Samples were sonicated and heated at 95 °C for 5 min. Proteins were separated by SDS-PAGE and electro-transferred onto nitrocellulose membranes. Blots were placed in Tris-buffered saline, supplemented with 0.05% Tween (Sigma, P2287) and 5% non-fat milk for 1 h at room temperature and then incubated with primary antibody (diluted in TBS/0.05% Tween) overnight at 4 °C. The following primary antibodies were used: Beclin1 (1:1000, Cell Signaling, #3495), Atg12 (1:1000, Cell Signaling #2010), LC3B-I/II (1:1000, Cell Signaling, #2775), FLAG (1:7000, Rockland, 600-401-383), FKBP51 (1:1000, Bethyl, A301-430A), Akt (1:1000, Cell Signaling, #4691), pAkt (1:1000, Ser473, T308, 1:1000, Cell Signaling, #4058, #9275), Actin (1:5000, Santa Cruz Biotechnologies, sc-1616), Skp2, myc (Addgene, 19947), GFP (santa cruz biotechnologies, sc-8334), p27 (cell signaling technologies, 3686), pULK,(S757, cell signaling technologies, 6888) APP-CTF (sigma-aldrich, A8717), DNMT1 (1:1000, Imgenex, IMG-261A), phospho-DNMT1 (S154), (1:1000, Abnova, PAB4924), ptau (S622; Santa Cruz Biotechnologies, #sc-16938).
Subsequently, blots were washed and probed with the respective horseradish peroxidase- or fluorophore-conjugated secondary antibody for 1 h at room temperature. The immuno-reactive bands were visualized either using ECL detection reagent (Millipore, Billerica, MA, USA, WBKL0500) or directly by excitation of the respective fluorophore. Determination of the band intensities were performed with BioRad, ChemiDoc MP, or X-ray-films.
The Fkbp51^-/- mouse line was previously generated (Touma C et al. (2011) Biol. Psychiatry 70: 928-936) and fully backcrossed to C57/BI6. […] Hippocampus and prefrontal cortex were extracted.

Beclin1 mRNA = Beclin1 mRNA expression by qPCR in rat cortical astrocytes; format: cell-based; details: 10µM for 72h; vehicle set to 1
Description: (§1) Enriched astroglial cultures were prepared from postnatal day 1 rat pups (Sprague-Dawley, Charles River, Sulzfeld, Germany) and handled as described by Attwood BK et al. (2011) Nature 473: 372-375 and Hartmann J et al. (2012) Neuropharmacology 62: 332-339.
Total RNA was isolated from astroglial cells according to the manufacturer's protocol of NucleoSpin RNA II (Macherey-Nagel, Germany). In total, 300 ng of purified RNA was reverse transcribed using random primers (Promega) and Omniscript® Reverse Transcriptase (Qiagen). Based on the LightCycler® System (Roche Applied Science, Germany) and SYBR green detection (QuantiFast® SYBR Green; Qiagen), quantitative assessment of Beclin1 cDNA levels were performed. b-Actin PCR was performed serving as endogenous control for normalization. The primers used were: for Beclin1: antisense - 5'-[…]-3' sense - 5'-[…]-3'; and for β-Actin: antisense - 5'-[…]-3', sense-5'-[…]-3'. Relative changes of gene expression were calculated using the comparative ΔΔCT method (Livak and Schmittgen, METHODS 25, 402-408, 2001). Detection of viral RNA by real-time PCR was as recently described (Corman et al. (2014) Journal of Clinical Virology 60: 168-171).
Beclin1 mRNA expression levels were determined by qPCR. HEK cells were treated either with proteasome inhibitor MG132 or with vehicle for 5h and Beclin1 protein levels were determined by Western analysis. Furthermore Co-immunoprecipitations were performed with Beclin1 antibody in HEK cell lysates with ectopic Ub-GFP.

[1] = Forced swim test after acute antidepressant injection in Fkbp51+/+ and Fkbp51-/- mice; format: in vivo; details: FKBP51 WT versus FKBP51 KO mice; 10 mg kg-1 intraperitoneal
Description: The Fkbp51^-/- mouse line was previously generated (Touma C et al. (2011) Biol. Psychiatry 70: 928-936) and fully backcrossed to C57/BI6. […] Hippocampus and prefrontal cortex were extracted. […] Male mice (age 10-16 weeks) were injected intraperitoneally with a single dose of either AMI (10 mg kg^-1) or saline vehicle. […] Another subgroup (WT n=5, KO n=5) was sacrificed, and brain tissue and blood was sampled for analysis of drug concentrations. […] The inventors performed an additional forced swim test administering the antidepressant amitriptyline in FKBP51 WT and FKBP51 KO mice (Fig. 1 B).

Beclin1 [2] = assay: Western analysis of Beclin1 and p27 protein levels in HEK 293 and astrocytic lysates; format: cell-based; details: HEK 293 and primary rat cortical astrocytic lysates
Description: (§2) Western blot analysis was performed on eluates from ColPs or with protein extracts from cells or tissue. Protein extracts were obtained by lysing cells or tissue (prelysed as described in the paragraph before) in 62.5 mM Tris, 2% SDS and 10% sucrose, supplemented with protease (Sigma, P2714) and phosphatase (Roche, 04906837001) inhibitor cocktail. Samples were sonicated and heated at 95 °C for 5 min. Proteins were separated by SDS-PAGE and electro-transferred onto nitrocellulose membranes. Blots were placed in Tris-buffered saline, supplemented with 0.05% Tween (Sigma, P2287) and 5% non-fat milk for 1 h at room temperature and then incubated with primary antibody (diluted in TBS/0.05% Tween) overnight at 4 °C. […]

autophagy = assay: Autophagy markers (Western blot, Beclin1 immunoprecipitation) in brain extracts of Alzheimer model mice (TG2576); format: in vivo, TG2576 animals; details: 5mg/kg daily intraperitoneal for 3 months
Description: (§3) For the precipitation of Beclin1 from brain tissue (Fig. 15), the tissue was first homogenized (300µL of Buffer I (50 mM Tris (pH 7.5), 150 mM NaCl, 5 mM EDTA, Protease inhibitor Mix (Sigma , P2714), Phosphatase Inhibitor (Roche, 04906837001)) followed by sonication and addition of 300µL of Buffer II (50 mM Tris (pH 7.5), 150 mM NaCl, 1% NP40, 1% Deoxycholate, 2% SDS, Protease inhibitor Mix (Sigma , P2714), Phosphatase Inhibitor (Roche, 04906837001)).
(§4) Western blot analysis was performed on eluates from ColPs or with protein extracts from cells or tissue. Protein extracts were obtained by lysing cells or tissue (prelysed as described in the paragraph before) in 62.5 mM Tris, 2% SDS and 10% sucrose, supplemented with protease (Sigma, P2714) and phosphatase (Roche, 04906837001) inhibitor cocktail. Samples were sonicated and heated at 95 °C for 5 min. Proteins were separated by SDS-PAGE and electro-transferred onto nitrocellulose membranes. […]
(§5) TG2576 animals (used as Alzheimer's disease model, overexpress a mutant form of amyloid precursor protein (APP)) were chronically treated with daily intraperitoneal injections of SMIP004 (N-(4-butyl-2-methylphenyl)acetamide; 5mg/kg) or vehicle (0.9% NaCl; 1.25% DMSO) for 3 months. Brain and other tissue was analyzed for markers of autophagy and for the levels of soluble beta-amyloid (Aβ). […]

APP-CTF = APP-CTF Western blot in brain extracts of Alzheimer model mice (TG2576); format: in vivo, TG2576 animals; details: 5mg/kg daily intraperitoneal for 3 months
Description: as §3, §4, §5

Beclin1 [3] = assay: Western analysis of Beclin1 protein level in primary rat cortical astrocytes; format: cell-based
Description: as §2

[4] = system: primary rat cortical astrocytes; assay: MTT cytotoxicity assay in primary rat cortical astrocytes; format: cell-based
Description: as §1
In an effort to find a small molecule to inhibit the E3 ligase Skp2 three promising candidates of published chemical genetic screens were tested on cellular toxicity and its potency to stabilise Beclin1. Cytotoxicity was determined by an MTT assay performed in HEK 293 cell and in primary rat cortical astrocytes. Effects of small compounds on Beclin1 and p27 protein levels were determined by Western analysis of HEK 293 primary rat cortical astrocytic lysates (see Fig. 6).

Beclin1 [5] = assay: Protein levels in brain extracts (hippocampus, prefrontal cortex) of SMIP004-treated mice; format: in vivo, C57BL/6 mice; details: various cell types; brain lysates of animals treated with SMIP004 (0.5 or 5 mgkg-1)
Description: as §2
Furthermore the neuronal activity in CA1 hippocampus was measured after treatment with SMIP004 (Figure 7). […] And protein levels were determined in extracts of the hippocampus and the prefrontal cortex.

soluble Aβ = assay: Aβ42 ELISA in Alzheimer model mice (TG2576); format: in vivo, TG2576 animals; details: 5mg/kg daily intraperitoneal for 3 months
Description: TG2576 animals (used as Alzheimer's disease model, overexpress a mutant form of amyloid precursor protein (APP)) were chronically treated with daily intraperitoneal injections of SMIP004 (N-(4-butyl-2-methylphenyl)acetamide; 5mg/kg) or vehicle (0.9% NaCl; 1.25% DMSO) for 3 months. Brain and other tissue was analyzed for markers of autophagy and for the levels of soluble beta-amyloid (Aβ). It is commonly assumed that Aβ agglomerates are causally linked to Alzheimer's disease.

Tail suspension test = format: in vivo; details: C57BL/6 mice; SMIP004 0.5 or 5 mgkg-1; paroxetine 10 mgkg-1 as comparator
CA1 neuronal activity = assay: Voltage-sensitive dye imaging (VSDI) of evoked CA1 neuronal activity in brain slices; details: 10 µM SMIP004, 1 h after wash in; slices from C57BL/6 mice
Description: Brain slices were obtained from 11-18 week-old male FKBP51+/+ and FKBP51-/- litter mates (Fig. 1) or from BL6 mice (Fig. 7). […] Four acquisitions subsequently recorded at intervals of 5 s were averaged. Neuronal activity was evoked by square pulse electrical stimuli (200 µs pulse width) delivered via a custom-made monopolar tungsten electrode to the Schaffer collateral-commissural pathway. The circular ROI was placed into the CA1 stratum radiatum near the stimulation electrode. The ROI also covered a part of the adjacent CA1 stratum pyramidale (Fig. 1 B). The intensity of voltage stimulation was adjusted to produce FDSs with peak amplitudes of ~30% of the highest attainable value.
Hippocampal CA3-CA1 synapses were electrically stimulated in brain slices from Fkbp51^+/+ and Fkbp51^-/- mice, and CA1 neuronal activity was monitored by means of voltagesensitive dye imaging (VSDI).

SMILES | effects on autophagy markers (autophagy markers) | Beclin1 mRNA expression level (Beclin1 mRNA) | behavioral effects, forced swim test [1] | stabilization of Beclin1 (protein level, Western analysis) (Beclin1 [2]) | induction of autophagy (p27, Beclin1, Atg12, pULK S757; Beclin1 ubiquitinylation, Vps34 association) (autophagy) | levels of APP-CTF in the brain (APP-CTF) | effect on Beclin1 protein level (Beclin1 [3]) | cytotoxic effects (MTT assay) [4] | Beclin1 stabilization confirmed in other cell types and mice brain lysates (Beclin1 [5]) | levels of soluble Aβ in plasma and CSF (soluble Aβ) | antidepressant-like behavior in the tail suspension test (Tail suspension test) | synaptic neurotransmission (CA1 FDSs, VSDI) (CA1 neuronal activity)
CN(C)CCC=C1c2ccccc2CCc2ccccc21 [amitriptyline] | only observed in FKBP51 WT mice but not in FKBP51 KO mice | do not change Beclin1-mRNA | only observed in FKBP51 WT mice but not in FKBP51 KO mice | – | – | – | – | – | – | – | – | –
CCCCc1ccc(NC(C)=O)c(C)c1 [SMIP004, N-(4-butyl-2-methylphenyl)acetamide] | – | – | – | potent stabilizer of Beclin1 | induces autophagy, independently of the mTOR-ULK1 cascade | reduces the levels of APP-CTF in the brain | particularly strong | very low cytotoxic effects | confirmed in various cell types as well as in mice brain lysates | reduces the levels of soluble Aβ in plasma and CSF | antidepressant-like behavior comparable to animals treated with paroxetine | increased synaptic neurotransmission similarly to paroxetine
CNCCC(Oc1ccc(C(F)(F)F)cc1)c1ccccc1 (stereo not shown) [fluoxetine] | – | do not change Beclin1-mRNA | – | – | – | – | – | – | – | – | – | –
